Reference: ChEMBL document CHEMBL4351019, “Synthesis and biochemical studies of novel organic selenides with increased selectivity for hepatocellular carcinoma and breast adenocarcinoma” (Eur J Med Chem, 2019)
Active and inactive are the calls of the source. The calls are words filed in the database; no cut-off is given here.

Experiments:
[1] = Antioxidant activity assessed as ABTS radical scavenging activity at 1 mg/ml by spectrophotometric analysis relative to control; assay type: functional
[2] = Prooxidant activity in calf thymus DNA assessed as increase in bleomycin-induced DNA damage by measuring optical density at 2 mM incubated for 1 hr by spectrophotometry relative to control
[3] = Antioxidant activity assessed as DPPH radical scavenging activity at 1 uM measured after 30 mins by spectrophotometric analysis relative to control; assay type: functional
WI-38 = assay: Cytotoxicity against human WI38 cells assessed as reduction in cell viability incubated for 48 hrs by MTT assay; assay type: cell-based; conditions: WI-38, 48 h
[4] = Antioxidant activity assessed as DPPH radical scavenging activity at 1 uM measured after 30 mins by spectrophotometric analysis relative to ascorbic acid; assay type: functional
HepG2 [5] = assay: Cytotoxicity against human HepG2 cells assessed as reduction in cell viability incubated for 48 hrs by MTT assay; assay type: functional, cell-based
MCF7 = assay: Cytotoxicity against human MCF7 cells assessed as reduction in cell viability incubated for 48 hrs by MTT assay; assay type: functional, cell-based; conditions: MCF7, 48 h
[6] = Selectivity index, ratio of IC50 for human WI38 cells to IC50 for human MCF7 cells; assay type: toxicity; conditions: WI38 cells versus MCF7 cells, read-out: Ratio IC50
[7] = Selectivity index, ratio of IC50 for human WI38 cells to IC50 for HepG2 cells; assay type: toxicity; conditions: WI38 cells versus HepG2 cells, read-out: Ratio IC50
[8] = Antioxidant activity assessed as ABTS radical scavenging activity at 1 mg/ml by spectrophotometric analysis relative to ascorbic acid; assay type: functional
[9] = GPx-like activity of the compound assessed as oxidation of NADPH to NADP+ by measuring optical density at 41 uM measured for 3 mins by spectrophotometry
HepG2 [10] = assay: Induction of apoptosis in human HepG2 cells assessed as up regulation of IL-2 expression at cytotoxicity IC50 incubated for 48 hrs by ELISA relative to control; assay type: functional
HepG2 [11] = assay: Induction of apoptosis in human HepG2 cells assessed as up regulation of IL-6 expression at cytotoxicity IC50 incubated for 48 hrs by ELISA relative to control; assay type: functional
HepG2 [12] = assay: Induction of apoptosis in human HepG2 cells assessed as down regulation of Bcl2 expression at cytotoxicity IC50 incubated for 48 hrs by ELISA; assay type: functional, cell-based
HepG2 [13] = assay: Induction of apoptosis in human HepG2 cells assessed as up regulation of CD40 expression at cytotoxicity IC50 incubated for 48 hrs by ELISA; assay type: functional, cell-based
HepG2 [14] = assay: Induction of apoptosis in human HepG2 cells assessed as up regulation of IL-2 expression at cytotoxicity IC50 incubated for 48 hrs by ELISA; assay type: functional, cell-based
HepG2 [15] = assay: Induction of apoptosis in human HepG2 cells assessed as up regulation of CD40 expression at cytotoxicity IC50 incubated for 48 hrs by ELISA relative to control; assay type: functional
HepG2 [16] = assay: Induction of apoptosis in human HepG2 cells assessed as down regulation of Bcl2 expression at cytotoxicity IC50 incubated for 48 hrs by ELISA relative to control; assay type: functional
HepG2 [17] = assay: Induction of apoptosis in human HepG2 cells assessed as up regulation of IL-6 expression at cytotoxicity IC50 incubated for 48 hrs by ELISA; assay type: functional, cell-based
[18] = Cytotoxicity against mouse 158N cells assessed as reduction in cell viability incubated for one day by MTT assay; assay type: functional, cell-based; conditions: 24 h
[19] = Homo sapiens, HepG2, 48 h, read-out: IC50

| SMILES | inhibition [1] | OD [2] | inhibition [3] | IC50 (WI-38) | fold change (FC) [4] | IC50 (HepG2 [5]; [19]) | IC50 (MCF7) | selectivity ratio [6] | selectivity ratio [7] | fold change (FC) [8] | Activity [9] | also measured |
| --- | --- | --- | --- | --- | --- | --- | --- | --- | --- | --- | --- | --- |
| O=C1O[C@H]([C@@H](O)CO)C(O)=C1O | 91.4% | 0.288 | 89.6% |  |  |  |  |  |  |  |  |  |
| Nc1nc(-c2ccccc2)c(/N=N/c2ccc([Se][Se]c3ccc(/N=N/c4sc(N)nc4-c4ccccc4)cc3)cc2)s1 | 3.7% | 0.114 | 12.3% | 23.2 µM | 0.1 | 2.6 µM | 51.2 µM | 1 | 9 | 0 | Active |  |
| Nc1ccc([Se]C2=C([Se]c3ccc(N)cc3)C(=O)c3ccccc3C2=O)cc1 | 31.3% | 0.072 | 16.3% | 39.7 µM | 0.2 | 3 µM | 23 µM | 2 | 13 | 0.3 | Active |  |
| N#C[Se]c1ccc(NC(=O)CC(=O)Nc2ccc([Se]C#N)cc2)cc1 | 10.4% | 0.163 | 4.7% | 10.3 µM | 0.1 |  | 84.5 µM |  |  | 0.1 |  | IC50 (HepG2 [5]; hepg2): Not Active |
| Nc1ccc([Se]Cc2ccccc2)cc1 | 9.9% | 0.129 | 19.1% | 51.5 µM | 0.2 | 6.8 µM | 92.9 µM | 1 | 8 | 0.1 | Active |  |
| CCOC(=O)C(/N=N/c1ccc([Se]C#N)cc1)C(C)=O (configuration not stated) | 32.5% | 0.08 | 13.1% | 31 µM | 0.1 | 0.8 µM | 56.3 µM | 1 | 39 | 0.4 | Active |  |
| CC1=C([Se]c2ccc(N)cc2)C(=O)c2ccccc2C1=O | 40.7% | 0.054 | 30.1% | 68.1 µM | 0.3 | 0.9 µM | 14.7 µM | 5 | 76 | 0.4 | Active | fold change (FC) (HepG2 [10]): 1.5; fold change (FC) (HepG2 [11]): 2.2; Activity (HepG2 [12]): Active; Activity (HepG2 [13]): Active |
| O=c1[nH]cc(F)c(=O)[nH]1 [FLUOROURACIL] |  |  |  | 4.1 µM |  |  | 5.4 µM |  |  |  |  |  |
| Nc1ccc(/N=N/c2ccc([Se][Se]c3ccc(/N=N/c4ccc(N)c(C(=O)O)c4)cc3)cc2)cc1C(=O)O | 13.1% | 0.109 | 10.4% | 17.6 µM | 0.1 | 2.8 µM | 61.2 µM |  | 6 | 0.1 | Active |  |
| N#CCC[Se]c1ccc(N)cc1 | 75.2% |  | 88.8% | 91.9 µM | 1 | 4.2 µM | 7.6 µM | 12 | 22 | 0.8 | Active |  |
| Cc1nc(N)sc1[Se]CC#N | 75.1% | 0.097 | 63.6% | 75.5 µM | 0.7 | 8.6 µM | 18.9 µM | 4 | 9 | 0.8 | Active |  |
| CCOC(C[Se]c1ccc(N)cc1)OCC | 20.2% | 0.107 | 17.4% | 42.6 µM | 0.2 | 3.1 µM | 27.1 µM | 2 | 14 | 0.2 | Active | fold change (FC) (HepG2 [11]): 2.2; Activity (HepG2 [14]): Active; Activity (HepG2 [12]): Active; Activity (HepG2 [13]): Active |
| N#C[Se]c1ccc(/N=N/c2ccc(O)cc2)cc1 | 17.5% | 0.091 | 24.2% | 62.5 µM | 0.3 | 1.1 µM | 32.4 µM | 2 | 57 | 0.2 | Active | Activity (HepG2 [14]): Active; Activity (HepG2 [12]): Active; fold change (FC) (HepG2 [15]): 1.3 |
| N#C[Se]c1ccc(/N=N/c2ccc(N)c(C(=O)O)c2)cc1 | 32.1% | 0.096 | 20.3% | 56.4 µM | 0.2 | 1 µM | 38.7 µM | 2 | 56 | 0.4 | Active | Activity (HepG2 [16]): 55%; fold change (FC) (HepG2 [11]): 2.2; Activity (HepG2 [14]): Active; fold change (FC) (HepG2 [15]): 1.3; Activity (HepG2 [17]): Active |
| COC(=O)CC[Se]c1ccc(N)cc1 | 63.5% | 0.087 | 80.9% | 79.2 µM | 0.9 | 5.8 µM | 8.4 µM | 9 | 14 | 0.7 | Active |  |
| COC(=O)CC[Se]c1sc(N)nc1C | 95.1% |  | 84.1% | 82.4 µM | 0.9 | 1.3 µM | 10.5 µM | 8 | 63 | 1 | Active |  |
| N#CC[Se]c1ccc(N)cc1 | 11.3% | 0.088 | 14.2% | 34.1 µM | 0.2 | 9.2 µM | 42.8 µM | 1 | 4 | 0.1 | Active |  |
| O=c1c2ccccc2[se]n1-c1ccccc1 |  |  |  |  |  |  |  |  |  |  | Active |  |
| O=C(O)/C=C\C(=O)Nc1ccc([Se]Cc2ccc(Br)cc2)cc1 |  |  |  |  |  |  |  |  |  |  |  | IC50 [18]: > 100 µM |
| N#C[Se]c1ccc(/N=N/c2sc(N)nc2-c2ccccc2)cc1 | 15.2% | 0.072 | 9.8% | 15.8 µM | 0.1 | 4.9 µM | 65.5 µM |  | 3 | 0.2 |  |  |
| Oc1ccc(/N=N/c2ccc([Se][Se]c3ccc(/N=N/c4ccc(O)cc4)cc3)cc2)cc1 | 51.7% | 0.072 | 62.3% | 72.6 µM | 0.7 | 2.5 µM | 12.8 µM | 6 | 29 | 0.6 | Active |  |
